In the supplement of paper PMC10307832:

Experiments:
Experiment in all cases: relative viability (nuclei count vs DMSO), 5 days (fraction); higher = more cells survive
[1] = compound: NC(=O)c1ccc(N(C(N)=O)c2c(F)cccc2F)nc1-c1ccc(F)cc1F [VX-702] + CS(=O)(=O)N1CCN(Cc2cc3nc(-c4cccc5[nH]ncc45)nc(N4CCOCC4)c3s2)CC1 [Pictilisib] (partner 1 µM)
Outline: (§1)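 Five library-drug doses in √10 steps were combined with a fixed anchor-drug dose, or a single drug was given alone, by pin tool to lung cancer cell lines in 1536-well plates the day after seeding. Nuclei were stained and counted after 5 days. Relative viability is the nuclei count in treated wells over that in vehicle wells, taken as the median of duplicate plates.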

[2] = compound: CC(C)(C)c1nc(-c2cccc(NS(=O)(=O)c3c(F)cccc3F)c2F)c(-c2ccnc(N)n2)s1 [Dabrafenib] + O=C(c1cc(Cc2n[nH]c(=O)c3ccccc23)ccc1F)N1CCN(C(=O)C2CC2)CC1 [Olaparib] (partner 8 µM)
Outline: as §1

[3] = compound: NC(=O)c1ccc(N(C(N)=O)c2c(F)cccc2F)nc1-c1ccc(F)cc1F [VX-702] + NC(=O)Nc1cc(-c2cccc(F)c2)sc1C(=O)N[C@H]1CCCNC1 [AZD7762] (partner 0.2 µM)
Outline: as §1

[4] = compound: CC(C)(C)c1nc(-c2cccc(NS(=O)(=O)c3c(F)cccc3F)c2F)c(-c2ccnc(N)n2)s1 [Dabrafenib] + CCNC(=O)c1noc(-c2cc(C(C)C)c(O)cc2O)c1-c1ccc(CN2CCOCC2)cc1 [Luminespib] (partner 0.01 µM)
Outline: as §1

Cell Line	relative viability ([1]; first compound 0.02 µM)	relative viability ([1]; first compound 0.2 µM)	relative viability ([1]; first compound 0.6325 µM)	relative viability ([1]; first compound 2 µM)	relative viability ([2]; first compound 0.009487 µM)	relative viability ([2]; first compound 0.09487 µM)	relative viability ([2]; first compound 0.3 µM)	relative viability ([3]; first compound 0.02 µM)	relative viability ([3]; first compound 0.2 µM)	relative viability ([3]; first compound 0.6325 µM)	relative viability ([3]; first compound 2 µM)	relative viability ([4]; first compound 0.009487 µM)	relative viability ([4]; first compound 0.03 µM)	relative viability ([4]; first compound 0.09487 µM)	relative viability ([4]; first compound 0.3 µM)	relative viability ([2]; first compound 0.003 µM)	relative viability ([2]; first compound 0.03 µM)	relative viability ([4]; first compound 0.003 µM)
NCI-H322M	0.543	0.528	0.483	0.521	0.8	0.745	0.736	0.544	0.558	0.537	0.499	1.05	0.692	0.856	0.803			
HCC-366	0.132	0.148	0.154	0.113	0.337	0.329	0.39	0.381	0.218	0.372	0.123					0.381	0.271	
NCI-H1355	0.514	0.439	0.338	0.46	0.763	0.639	0.718	0.867	0.672	0.83	0.813	0.83	0.611	0.628	0.69		0.769	
LC-2-ad	0.472	0.45	0.446	0.433	0.668	0.647	0.698	0.837	0.854	0.892	0.973	1.16	1.27	1.04	0.947	0.69	0.709	
NCI-H2087	0.861	0.729	0.881	0.783	0.535	0.385	0.532	1.53	1.35	1.54	1.34	0.202	0.163	0.154	0.207		0.541	
BEN	0.558	0.526	0.491	0.608	1.24	1.02	1.18	0.841	0.637	0.597	0.691	0.549		0.344	0.332			
NCI-H2228	0.364	0.431	0.343	0.507	0.464	0.439	0.693					0.184	0.147	0.118	0.165	0.757	0.615	
HCC-827	0.856	0.701	0.99	0.355	0.79		0.671	0.2	0.226	0.215	0.137	0.986	0.308		0.518	0.65	0.62	0.387
IA-LM	0.298	0.324	0.265	0.352	0.743	0.687	0.554									0.873	0.831	
NCI-H522					0.788	0.642	0.633	0.92	0.833	0.689	0.931	1.05	1.11		1.3		0.59	
H3255	0.553	0.48	0.462	0.479	0.568	0.573	0.595	0.987	0.901	0.994	0.996	0.961	0.908	0.96	0.871	0.632	0.626	0.699
NCI-H838	0.467	0.408	0.517	0.47	0.792	0.68	0.873	0.937	0.912	1.05	0.903	0.311	0.236	0.292	0.275	0.772	0.735	0.35
NCI-H1993	0.871	0.808	0.757	0.834	1.1	1.06	1.31	0.434	0.694	0.736	0.65	0.984	0.812	0.828	1.06	1.17	1.09	0.68
SK-MES-1	0.342	0.293	0.364	0.313	0.671	0.567	0.393					0.973	0.86	0.8	0.688	0.582	0.627	0.676
NCI-H661	0.395	0.458	0.426	0.421	0.685	0.75	0.773					0.927	0.912	0.758	0.855	0.739	0.746	0.985
NCI-H1650	0.641	0.326	0.596	0.586	0.721	0.794	1.01					0.201	0.229	0.221	0.188	0.827	0.764	0.172
ABC-1	0.829		0.649	0.655	0.707	0.849	1.26	0.425		0.432	0.897	0.637		0.449	0.875		0.953	0.67
LU99A	0.316	0.297	0.292	0.318	0.278	0.236	0.272	0.35	0.372	0.368	0.234	0.212	0.225	0.3	0.29	0.296	0.257	0.203
